Results from US7772180B2, “Hepatitis C virus inhibitors” (Bristol-Myers Squibb Company, priority 2006, dated 2010).
Where two headings read alike, the source gives them in different places.

What was measured:
[1] = target: T1, HCV NS3/4A protease complex, BMS strain (UniProt P27958, species not given/STRAIN_BMS); test: FRET peptide assay to monitor HCV NS3/4A proteolytic activity (BMS strain); type: biochemical, Hepatitis C virus (genotype 1a)
T1 construct: other: NS3/4A BMS strain; activity range class; numeric values, unit not given; said of H77 and J4L6S; fused on or other part: A three-lysine solubilising tail at the C-terminus of NS4A; A His tag is implied by the pET21b vector and Ni-NTA purification; Both are printed for the H77 and J4L6S constructs and apply to BMS by inference
T1 sequence (P27958 1027-1657, change not shown, one chain of several): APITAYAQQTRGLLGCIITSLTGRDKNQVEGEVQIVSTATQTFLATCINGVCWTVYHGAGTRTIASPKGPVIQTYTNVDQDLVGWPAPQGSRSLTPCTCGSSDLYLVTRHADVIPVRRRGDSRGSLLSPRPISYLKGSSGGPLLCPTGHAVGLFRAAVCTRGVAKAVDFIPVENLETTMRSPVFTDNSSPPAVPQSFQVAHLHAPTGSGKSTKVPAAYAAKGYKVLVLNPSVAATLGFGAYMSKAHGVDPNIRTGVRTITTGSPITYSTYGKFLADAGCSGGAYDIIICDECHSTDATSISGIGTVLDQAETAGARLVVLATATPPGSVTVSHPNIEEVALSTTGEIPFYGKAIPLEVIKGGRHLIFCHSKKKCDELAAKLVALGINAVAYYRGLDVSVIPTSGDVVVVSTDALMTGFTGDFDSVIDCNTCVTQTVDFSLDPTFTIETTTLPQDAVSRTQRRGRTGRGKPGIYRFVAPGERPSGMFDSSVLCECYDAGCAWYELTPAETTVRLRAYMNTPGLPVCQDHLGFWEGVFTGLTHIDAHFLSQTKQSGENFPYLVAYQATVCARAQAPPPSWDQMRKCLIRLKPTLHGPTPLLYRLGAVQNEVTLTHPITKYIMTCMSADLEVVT
Text: HCV NS3 protease complexes, derived from the BMS strain, H77 strain or J4L6S strain, were generated, as described below. These purified recombinant proteins were generated for use in a homogeneous assay (see below) to provide an indication of how effective compounds of the present disclosure would be in inhibiting HCV NS3 proteolytic activity.
Serum from an HCV-infected patient was obtained from Dr. T. Wright, San Francisco Hospital. An engineered full-length cDNA (compliment deoxyribonucleic acid) template of the HCV genome (BMS strain) was constructed from DNA fragments obtained by reverse transcription-PCR (RT-PCR) of serum RNA (ribonucleic acid) and using primers selected on the basis of homology between other genotype 1a strains. From the determination of the entire genome sequence, a genotype 1a was assigned to the HCV isolate according to the classification of Simmonds et al. (See P Simmonds, K A Rose, S Graham, S W Chan, F McOmish, B C Dow, E A Follett, P L Yap and H Marsden, J. Clin. Microbiol., 31(6), 1493-1503 (1993)). […] The infectious clones, H77 (1a genotype) and J4L6S (1b genotype) were obtained from R. Purcell (NIH) and the sequences are published in Genbank (AAB67036, see Yanagi, M., Purcell, R. H., Emerson, S. U. and Bukh, J. Proc. Natl. Acad. Sci. U.S.A. 94(16), 8738-8743 (1997); AF054247, see Yanagi, M., St Claire, M., Shapiro, M., Emerson, S. U., Purcell, R. H. and Bukh, J. Virology 244 (1), 161-172. (1998)).
NS3/4A protease complex-containing fractions were pooled and loaded on a desalting column Superdex-S200 pre-equilibrated with buffer D (25 mM HEPES, pH 7.5, 20% glycerol, 300 mM NaCl, 0.2% Triton X-100, 10 mM βME). Sample was loaded at a flow rate of 1 mL/min. NS3/4A protease complex-containing fractions were pooled and concentrated to approximately 0.5 mg/ml. The purity of the NS3/4A protease complexes, derived from the BMS, H77 and J4L6S strains, were judged to be greater than 90% by SDS-PAGE and mass spectrometry analyses. The enzyme was stored at −80° C., thawed on ice and diluted prior to use in assay buffer.
The purpose of this in vitro assay was to measure the inhibition of HCV NS3 protease complexes, derived from the BMS strain, H77 strain or J4L6S strain, as described above, by compounds of the present disclosure. This assay provides an indication of how effective compounds of the present disclosure would be in inhibiting HCV NS3 proteolytic activity.
In order to monitor HCV NS3/4A protease activity, an NS3/4A peptide substrate was used. The substrate was RET S1 (Resonance Energy Transfer Depsipeptide Substrate; AnaSpec, Inc. cat #22991) (FRET peptide), described by Taliani et al. in Anal. Biochem. 240(2):60-67 (1996). The sequence of this peptide is loosely based on the NS4A/NS4B natural cleavage site for the HCV NS3 protease except there is an ester linkage rather than an amide bond at the cleavage site. The peptide also contains a fluorescence donor, EDANS, near one end of the peptide and an acceptor, DABCYL, near the other end. The fluorescence of the peptide is quenched by […] resonance energy transfer (RET) between the donor and the acceptor, but as the NS3 protease cleaves the peptide the products are released from RET quenching and the fluorescence of the donor becomes apparent.
The peptide substrate was incubated with one of the three recombinant NS3/4A protease complexes, in the absence or presence of a compound of the present disclosure. The inhibitory effects of a compound were determined by monitoring the formation of fluorescent reaction product in real time using a Cytofluor Series 4000.
Assay buffer: 50 mM HEPES, pH 7.5; 0.15 M NaCl; 0.1% Triton; 15% Glycerol; 10 mM βME. Substrate: 2 μM final concentration (from a 2 mM stock solution in DMSO stored at −20° C.). HCV NS3/4A protease type 1a (1b), 2-3 nM final concentration (from a 5 μM stock solution in 25 mM HEPES, pH 7.5, 20% glycerol, 300 mM NaCl, 0.2% Triton-X100, 10 mM βME). […]

[2] = system: HCV replicon (strain 1b) in HUH-7 cells; test: HCV replicon FRET assay; type: cell-based, Hepatitis C virus; conditions: activity range class
Text: An HCV replicon whole cell system was established as described by Lohmann V, Korner F, Koch J, Herian U, Theilmann L, Bartenschlager R., Science 285(5424): 110-3 (1999). This system enabled us to evaluate the effects of our HCV Protease compounds on HCV RNA replication. Briefly, using the HCV strain 1b sequence described in the Lohmann paper (Assession number: AJ238799), an HCV cDNA was synthesized by Operon Technologies, Inc. (Alameda, Calif.), and the full-length replicon was then assembled in plasmid pGem9zf(+) (Promega, Madison, Wis.) using standard molecular biology techniques. The replicon consists of (i) the HCV 5′ UTR fused to the first 12 amino acids of the capsid protein, (ii) the neomycin phosphotransferase gene (neo), (iii) the IRES from encephalomyocarditis virus (EMCV), and (iv) HCV NS3 to NS5B genes and the HCV 3′ UTR. Plasmid DNAs were linearized with ScaI and RNA transcripts were synthesized in vitro using the T7 MegaScript transcription kit (Ambion, Austin, Tex.) according to manufacturer's directions. In vitro transcripts of the cDNA were transfected into the human hepatoma cell line, HUH-7. […] Resulting cell lines were characterized for positive and negative strand RNA production and protein production over time.
The HCV replicon FRET assay was developed to monitor the inhibitory effects of compounds described in the disclosure on HCV viral replication. HUH-7 cells, constitutively expressing the HCV replicon, were grown in Dulbecco's Modified Eagle Media (DMEM) (Gibco-BRL) containing 10% Fetal calf serum (FCS) (Sigma) and 1 mg/ml G418 (Gibco-BRL). Cells were seeded the night before (1.5×10^4 cells/well) in 96-well tissue-culture sterile plates. Compound and no compound controls were prepared in DMEM containing 4% FCS, 1:100 Penicillin/Streptomysin (Gibco-BRL), 1:100 L-glutamine and 5% DMSO in the dilution plate (0.5% DMSO final concentration in the assay). Compound/DMSO mixes were added to the cells and incubated for 4 days at 37° C. After 4 days, cells were first assessed for cytotoxicity using alamar Blue (Trek Diagnotstic Systems) for a CC50 reading. The toxicity of compound (CC50) was determined by adding 1/10th volume of alamarBlue to the media incubating the cells. After 4 hours, the fluorescence signal from each well was read, with an excitation wavelength at 530 nm and an emission wavelength of 580 nm, using the Cytofluor Series 4000 (Perspective Biosystems). Plates were then rinsed thoroughly with Phosphate-Buffered Saline (PBS) (3 times 150 μl).

[3] = read-out: HCV Protease (IC50); NS3/4A BMS strain; activity range class
[4] = Hepatitis C virus, Huh-7, read-out: HCV Pro Replicon (EC50), HCV replicon cell assay

Question: With `C=C[C@@H]1C[C@]1(NC(=O)[C@@H]1C[C@@H](Oc2nccc3cc(OC)ccc23)CN1C(=O)C(Nc1nc(OC)cc(OC)n1)C(C)C)C(=O)NS(=O)(=O)C1CC1` (mixture of isomers) [Compound 5, N-(4,6-dimethoxy-2-pyrimidinyl)valyl-(4R)—N-((1R,2S)-1-((cyclopropylsulfonyl)carbamoyl)-2-vinylcyclopropyl)-4-((6-methoxy-1-isoquinolinyl)oxy)-L-prolinamide] as the compound, how does the IC50 [1, 3] read?
Answer: 20 to 200 nM

Question: And the EC50 [2, 4]?
Answer: 100 to 1000 nM

Question: `C=C[C@@H]1C[C@]1(NC(=O)[C@@H]1C[C@@H](Oc2nccc3cc(OC)ccc23)CN1C(=O)C(Nc1cc(C#N)ccn1)C(C)C)C(=O)NS(=O)(=O)C1CC1` (mixture of isomers) [Compound 11, N-(4-cyano-2-pyridinyl)valyl-(4R)—N-((1R,2S)-1-((cyclopropylsulfonyl)carbamoyl)-2-vinylcyclopropyl)-4-((6-methoxy-1-isoquinolinyl)oxy)-L-prolinamide] was tested. Which IC50 [1, 3] did it give?
Answer: 0.6 to 20 nM

Question: What about the EC50 [2, 4] of the same compound?
Answer: 3 to 100 nM

Question: Which IC50 [1, 3] does the source give for `C=C[C@@H]1C[C@]1(NC(=O)[C@@H]1C[C@@H](Oc2nc(N(C)C)cc3cc(OC)ccc23)CN1C(=O)C(Nc1ccccc1)C(C)(C)C)C(=O)NS(=O)(=O)C1CC1` (single isomer, unassigned) [19 first isomer] here?
Answer: 0.6 to 20 nM

Question: What about the EC50 [2, 4] of the same compound?
Answer: 3 to 100 nM

Question: Which IC50 [1, 3] does the source give for `C=C[C@@H]1C[C@]1(NC(=O)[C@@H]1C[C@@H](Oc2nc(OC)cc3cc(OC)ccc23)CN1C(=O)C(Nc1ccccc1)C(C)(C)C)C(=O)NS(=O)(=O)C1CC1` (single isomer, unassigned) [20 first isomer] here?
Answer: 0.6 to 20 nM

Question: What about the EC50 ([2]; read-out: HCV Pro Replicon (EC50), HCV replicon cell assay) of the same compound?
Answer: 3 to 100 nM

Question: For `C=C[C@@H]1C[C@]1(NC(=O)[C@@H]1C[C@@H](Oc2ncc(OC)c3ccc(Cl)cc23)CN1C(=O)C(Nc1ccc(OC(F)F)nc1)C(C)(C)C)C(=O)NS(=O)(=O)C1CC1` (single isomer, unassigned) [409 - first isomer], which IC50 [1, 3] is on record?
Answer: 20 to 200 nM

Question: How did the IC50 [1, 3] turn out when `C=C[C@@H]1C[C@]1(NC(=O)[C@@H]1C[C@@H](Oc2ncc(OC)c3ccc(Cl)cc23)CN1C(=O)C(Nc1ccc(OC(F)F)nc1)C(C)(C)C)C(=O)NS(=O)(=O)C1CC1` (single isomer, unassigned) [409 - second isomer] was run?
Answer: > 200 nM

Question: For `C=C[C@@H]1C[C@]1(NC(=O)[C@@H]1C[C@@H](Oc2ncc(OC)c3ccc(Cl)cc23)CN1C(=O)[C@H](Nc1cccc(C(=O)NC(C)(C)c2ccccc2)c1)C(C)(C)C)C(=O)NS(=O)(=O)C1CC1` (single isomer, unassigned; isomer 3) [216 second isomer], which IC50 ([1]; NS3/4A BMS strain; activity range class; read-out: HCV Protease (IC50)) is on record?
Answer: > 200 nM

Question: `C=C[C@@H]1C[C@]1(NC(=O)[C@@H]1C[C@@H](Oc2ncc(OC)c3ccc(Cl)cc23)CN1C(=O)[C@H](Nc1cccc(F)c1F)C(C)(C)C)C(=O)NS(=O)(=O)C1CC1` [208 second isomer, N-(2,3-difluorophenyl)-3-methyl-D-valyl-(4R)-4-((7-chloro-4-methoxy-1-isoquinolinyl)oxy)-N-((1R,2S)-1-((cyclopropylsulfonyl)carbamoyl)-2-vinylcyclopropyl)-L-prolinamide] was tested. Which IC50 [1, 3] did it give?
Answer: > 200 nM

Question: Which IC50 [1, 3] does the source give for `C=C[C@@H]1C[C@]1(NC(=O)[C@@H]1C[C@@H](Oc2ncc(OC)c3ccc(Cl)cc23)CN1C(=O)[C@H](Nc1ccc(S(=O)(=O)NC(C)(C)C)cc1)C(C)(C)C)C(=O)NS(=O)(=O)C1CC1` [214 second isomer, N-(4-(tert-butylsulfamoyl)phenyl)-3-methyl-D-valyl-(4R)-4-((7-chloro-4-methoxy-1-isoquinolinyl)oxy)-N-((1R,2S)-1-((cyclopropylsulfonyl)carbamoyl)-2-vinylcyclopropyl)-L-prolinamide] here?
Answer: > 200 nM

Question: `C=C[C@@H]1C[C@]1(NC(=O)[C@@H]1C[C@@H](Oc2ncc(OC)c3ccc(Cl)cc23)CN1C(=O)[C@H](Nc1cccc(C(N)=O)c1)C(C)(C)C)C(=O)NS(=O)(=O)C1CC1` [217 second isomer, N-(3-carbamoylphenyl)-3-methyl-D-valyl-(4R)-4-((7-chloro-4-methoxy-1-isoquinolinyl)oxy)-N-((1R,2S)-1-((cyclopropylsulfonyl)carbamoyl)-2-vinylcyclopropyl)-L-prolinamide] was tested. Which IC50 [1, 3] did it give?
Answer: > 200 nM

Question: `C=C[C@@H]1C[C@]1(NC(=O)[C@@H]1C[C@@H](Oc2ncc(OC)c3ccc(Cl)cc23)CN1C(=O)[C@H](Nc1ccc(C(N)=O)cc1)C(C)(C)C)C(=O)NS(=O)(=O)C1CC1` [226 second isomer, N-(4-carbamoylphenyl)-3-methyl-D-valyl-(4R)-4-((7-chloro-4-methoxy-1-isoquinolinyl)oxy)-N-((1R,2S)-1-((cyclopropylsulfonyl)carbamoyl)-2-vinylcyclopropyl)-L-prolinamide] was tested. Which IC50 [1, 3] did it give?
Answer: > 200 nM

Question: With `C=C[C@@H]1C[C@]1(NC(=O)[C@@H]1C[C@@H](Oc2nc3c(c4cc(OC)ccc24)OCCN3C)CN1C(=O)[C@@H](Nc1ccc(F)c(F)c1)C(C)(C)C)C(=O)NS(=O)(=O)C1CC1` [235 first isomer, N-(3,4-difluorophenyl)-3-methyl-L-valyl-(4R)—N-((1R,2S)-1-((cyclopropylsulfonyl)carbamoyl)-2-vinylcyclopropyl)-4-((9-methoxy-4-methyl-3,4-dihydro-2H-[1,4]oxazino[3,2-c]isoquinolin-6-yl)oxy)-L-prolinamide] as the compound, how does the IC50 [1, 3] read?
Answer: > 200 nM
